Measurements taken from patent US20260347364A1, “PYRAZOLO[4,3-F]QUINAZOLINE DERIVATIVES AS MODULATORS OF G12D MUTANT KRAS USEFUL FOR THE TREATMENT OF CANCER” (JAZZ PHARMACEUTICALS IRELAND LTD., priority 2023, published 2026).

Tests used:
[1] = target: T1, KRAS G12D (Homo sapiens, UniProt P01116, G12D); experiment: HTRF nucleotide exchange assay, KRAS G12D; assay type: biochemical; conditions: HTRF nucleotide exchange assay (NEA), class symbols
T1 construct: aa1-188 KRAS WT, HRAS WT, NRAS WT, or KRAS containing the G12D

[2] = target: T2, KRAS WT (Homo sapiens, UniProt P01116); experiment: HTRF nucleotide exchange assay, KRAS WT; assay type: biochemical; conditions: HTRF nucleotide exchange assay (NEA), class symbols
T2 construct: aa1-188 KRAS WT
T2 sequence (P01116 1-188 isoform P01116-2): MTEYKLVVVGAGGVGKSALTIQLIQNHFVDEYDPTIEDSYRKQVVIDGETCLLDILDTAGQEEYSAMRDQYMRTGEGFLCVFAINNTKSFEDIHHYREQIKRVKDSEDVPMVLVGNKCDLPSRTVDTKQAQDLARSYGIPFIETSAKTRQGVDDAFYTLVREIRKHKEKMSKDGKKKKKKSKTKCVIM

T1 sequence (P01116 1-188 isoform P01116-2 G12D): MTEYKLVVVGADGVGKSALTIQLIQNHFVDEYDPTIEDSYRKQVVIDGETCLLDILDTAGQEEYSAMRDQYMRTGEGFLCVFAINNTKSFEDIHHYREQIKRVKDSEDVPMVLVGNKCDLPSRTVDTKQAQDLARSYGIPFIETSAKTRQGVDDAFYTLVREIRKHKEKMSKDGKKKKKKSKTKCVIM

SMILES	IC50 [1] [nM]	IC50 [2] [nM]
CCc1c(F)ccc2cc(O)cc(-c3c(F)c4nc(OCC5(CN(C)CC)CC5)nc(N5CCOCC(C)(O)C5)c4c4cn(C)nc34)c12 (centres unmarked) [Example 212, 4-[4-(8-ethyl-7-fluoro-3-hydroxy-1-naphthyl)-7-[[1-[[ethyl(methyl)amino]methyl]cyclopropyl]methoxy]-5-fluoro-2-methyl-pyrazolo[4,3-f]quinazolin-9-yl]-6-methyl-1,4-oxazepan-6-ol]	≤ 10	≤ 10
CCc1c(F)ccc2cc(O)cc(-c3c(F)c4nc(OCC5(CN6CCC(O)CC6)CC5)nc(N5CCOCC(C)(O)C5)c4c4cn(C)nc34)c12 (centres unmarked) [Example 213, 4-[4-(8-ethyl-7-fluoro-3-hydroxy-1-naphthyl)-5-fluoro-7-[[1-[(4-hydroxy-1-piperidyl)methyl]cyclopropyl]methoxy]-2-methyl-pyrazolo[4,3-f]quinazolin-9-yl]-6-methyl-1,4-oxazepan-6-ol]	≤ 10	≤ 10
CCc1c(F)ccc2cc(O)cc(-c3c(F)c4nc(OCC5(CN6CCC6)CC5)nc(N5CCOCC(C)(O)C5)c4c4cn(C)nc34)c12 (centres unmarked) [Example 214, 4-[7-[[1-(azetidin-1-ylmethyl)cyclopropyl]methoxy]-4-(8-ethyl-7-fluoro-3-hydroxy-1-naphthyl)-5-fluoro-2-methyl-pyrazolo[4,3-f]quinazolin-9-yl]-6-methyl-1,4-oxazepan-6-ol]	≤ 10	≤ 10
CCc1c(F)ccc2cc(O)cc(-c3c(C)c4nc(OCC5(CF)COC5)nc(N5CCCn6nc(C(=O)N(C)C)cc6C5)c4c4cn(C)nc34)c12 [Example 215]	10 to 100	100 to 10000
CCc1c(F)ccc2cc(O)cc(-c3c(C)c4nc(OC[C@@]56CCCN5C[C@H](F)C6)nc(N5CC6CCC5CN6)c4c4cn(C)nc34)c12 (stereo partly drawn) [Example 216, 4-[9-(2,5-diazabicyclo[2.2.2]octan-2-yl)-2,5-dimethyl-7-[[(2R,8S)-2-fluoro-1,2,3,5,6,7-hexahydropyrrolizin-8-yl]methoxy]pyrazolo[4,3-f]quinazolin-4-yl]-5-ethyl-6-fluoro-naphthalen-2-ol]	≤ 10	≤ 10
CCc1c(F)ccc2cc(O)cc(-c3c(F)c4nc(OCC5(CN6CC7CCC(C6)O7)CC5)nc(N5CCOCC(C)(O)C5)c4c4cn(C)nc34)c12 (centres unmarked) [Example 217, 4-[4-(8-ethyl-7-fluoro-3-hydroxy-1-naphthyl)-5-fluoro-2-methyl-7-[[1-(8-oxa-3-azabicyclo[3.2.1]octan-3-ylmethyl)cyclopropyl]methoxy]pyrazolo[4,3-f]quinazolin-9-yl]-6-methyl-1,4-oxazepan-6-ol]	≤ 10	≤ 10
CCc1c(F)ccc2cc(O)cc(-c3c(F)c4nc(OCC5(CN6CCC(C(F)(F)F)CC6)CC5)nc(N5CCOCC(C)(O)C5)c4c4cn(C)nc34)c12 (centres unmarked) [Example 218, 4-[4-(8-ethyl-7-fluoro-3-hydroxy-1-naphthyl)-5-fluoro-2-methyl-7-[[1-[[4-(trifluoromethyl)-1-piperidyl]methyl]cyclopropyl]methoxy]pyrazolo[4,3-f]quinazolin-9-yl]-6-methyl-1,4-oxazepan-6-ol]	≤ 10	≤ 10
CCc1c(F)ccc2cc(O)cc(-c3c(F)c4nc(OCC5(CN6CCOC(C(F)(F)F)C6)CC5)nc(N5CCOCC(C)(O)C5)c4c4cn(C)nc34)c12 (centres unmarked) [Example 219, 4-[4-(8-ethyl-7-fluoro-3-hydroxy-1-naphthyl)-5-fluoro-2-methyl-7-[[1-[[2-(trifluoromethyl)morpholin-4-yl]methyl]cyclopropyl]methoxy]pyrazolo[4,3-f]quinazolin-9-yl]-6-methyl-1,4-oxazepan-6-ol]	100 to 10000	100 to 10000
CCc1c(F)ccc2cc(O)cc(-c3c(F)c4nc(OCC5(CN6CC7CC7C6)CC5)nc(N5CCOCC(C)(O)C5)c4c4cn(C)nc34)c12 (centres unmarked) [Example 221, 4-[7-[[1-(3-azabicyclo[3.1.0]hexan-3-ylmethyl)cyclopropyl]methoxy]-4-(8-ethyl-7-fluoro-3-hydroxy-1-naphthyl)-5-fluoro-2-methyl-pyrazolo[4,3-f]quinazolin-9-yl]-6-methyl-1,4-oxazepan-6-ol]	≤ 10	≤ 10
CCc1c(F)ccc2cc(O)cc(-c3c(F)c4nc(OCC5(CN(C)C)CCC5)nc(N5CCOCC(C)(O)C5)c4c4cn(C)nc34)c12 (centres unmarked) [Example 222, 4-[7-[[1-[(dimethylamino)methyl]cyclobutyl]methoxy]-4-(8-ethyl-7-fluoro-3-hydroxy-1-naphthyl)-5-fluoro-2-methyl-pyrazolo[4,3-f]quinazolin-9-yl]-6-methyl-1,4-oxazepan-6-ol]	≤ 10	≤ 10
CCc1c(F)ccc2cc(O)cc(-c3c(F)c4nc(OC[C@@]56CCCN5C[C@H](F)C6)nc(N5CCOCC(O)C5)c4c4cn(C)nc34)c12 (stereo partly drawn) [Example 223, 4-[4-(8-ethyl-7-fluoro-3-hydroxy-1-naphthyl)-5-fluoro-7-[[(2R,8S)-2-fluoro-1,2,3,5,6,7-hexahydropyrrolizin-8-yl]methoxy]-2-methyl-pyrazolo[4,3-f]quinazolin-9-yl]-1,4-oxazepan-6-ol]	≤ 10	≤ 10
CCc1c(F)ccc2cc(O)cc(-c3c(F)c4nc(OCCC5CN(C)CCO5)nc(N5CCOCC(C)(O)C5)c4c4cn(C)nc34)c12 (centres unmarked) [Example 224, 4-[4-(8-ethyl-7-fluoro-3-hydroxy-1-naphthyl)-5-fluoro-2-methyl-7-[2-(4-methylmorpholin-2-yl)ethoxy]pyrazolo[4,3-f]quinazolin-9-yl]-6-methyl-1,4-oxazepan-6-ol]	≤ 10	10 to 100
CCc1c(F)ccc2cc(O)cc(-c3c(F)c4nc(OCC5(CN6CCC(CC#N)CC6)CC5)nc(N5CCOCC(C)(O)C5)c4c4cn(C)nc34)c12 (centres unmarked) [Example 225, 2-[1-[[1-[[4-(8-ethyl-7-fluoro-3-hydroxy-1-naphthyl)-5-fluoro-9-(6-hydroxy-6-methyl-1,4-oxazepan-4-yl)-2-methyl-pyrazolo[4,3-f]quinazolin-7-yl]oxymethyl]cyclopropyl]methyl]-4-piperidyl]acetonitrile]	≤ 10	≤ 10
CCc1c(F)ccc2cc(O)cc(-c3c(F)c4nc(OCC5(CN6CCC7(CCOCC7)C6)CC5)nc(N5CCOCC(C)(O)C5)c4c4cn(C)nc34)c12 (centres unmarked) [Example 228, 4-[4-(8-ethyl-7-fluoro-3-hydroxy-1-naphthyl)-5-fluoro-2-methyl-7-[[1-(8-oxa-2-azaspiro[4.5]decan-2-ylmethyl)cyclopropyl]methoxy]pyrazolo[4,3-f]quinazolin-9-yl]-6-methyl-1,4-oxazepan-6-ol]	≤ 10	≤ 10
CCc1c(F)ccc2cc(O)cc(-c3c(F)c4nc(OCC5(CN6CCC(F)(F)CC6)CC5)nc(N5CCOCC(C)(O)C5)c4c4cn(C)nc34)c12 (centres unmarked) [Example 229, 4-[7-[[1-[(4,4-difluoro-1-piperidyl)methyl]cyclopropyl]methoxy]-4-(8-ethyl-7-fluoro-3-hydroxy-1-naphthyl)-5-fluoro-2-methyl-pyrazolo[4,3-f]quinazolin-9-yl]-6-methyl-1,4-oxazepan-6-ol]	≤ 10	≤ 10
CCc1c(F)ccc2cc(O)cc(-c3c(F)c4nc(OCC5(CN(C)C)CC5)nc(N5CCC[C@@](C)(O)C5)c4c4cn(C)nc34)c12 [Example 230, (3R)-1-[7-[[1-[(dimethylamino)methyl]cyclopropyl]methoxy]-4-(8-ethyl-7-fluoro-3-hydroxy-1-naphthyl)-5-fluoro-2-methyl-pyrazolo[4,3-f]quinazolin-9-yl]-3-methyl-piperidin-3-ol]	≤ 10	≤ 10
CCc1c(F)ccc2cc(O)cc(-c3c(F)c4nc(OCC5(CN6CC[C@H](F)C6)CC5)nc(N5CCOCC(C)(O)C5)c4c4cn(C)nc34)c12 (stereo partly drawn) [Example 231, 4-[4-(8-ethyl-7-fluoro-3-hydroxy-1-naphthyl)-5-fluoro-2-methyl-7-[[1-[[(3S)-3-fluoropyrrolidin-1-yl]methyl]cyclopropyl]methoxy]pyrazolo[4,3-f]quinazolin-9-yl]-6-methyl-1,4-oxazepan-6-ol]	≤ 10	≤ 10
CCc1c(F)ccc2cc(O)cc(-c3c(F)c4nc(OCC5COCCN5C)nc(N5CCOCC(C)(O)C5)c4c4cn(C)nc34)c12 (centres unmarked) [Example 232, 4-[4-(8-ethyl-7-fluoro-3-hydroxy-1-naphthyl)-5-fluoro-2-methyl-7-[(4-methylmorpholin-3-yl)methoxy]pyrazolo[4,3-f]quinazolin-9-yl]-6-methyl-1,4-oxazepan-6-ol]	10 to 100	10 to 100
CCc1c(F)ccc2cc(O)cc(-c3c(F)c4nc(OCC5COCCN5)nc(N5CCOCC(C)(O)C5)c4c4cn(C)nc34)c12 (centres unmarked) [Example 233, 4-[4-(8-ethyl-7-fluoro-3-hydroxy-1-naphthyl)-5-fluoro-2-methyl-7-(morpholin-3-ylmethoxy)pyrazolo[4,3-f]quinazolin-9-yl]-6-methyl-1,4-oxazepan-6-ol]	≤ 10	10 to 100
CCc1c(F)ccc2cc(O)cc(-c3c(C)c4nc(OC[C@]5(C)CCCN5C)nc(N5CCC[C@@](C)(O)C5)c4c4cn(C)nc34)c12 [Example 234]	≤ 10	10 to 100
CCc1c(F)ccc2cc(O)cc(-c3c(F)c4nc(OCC56CCCN5CC(=C(F)F)C6)nc(N5CCOCC(C)(O)C5)c4c4cn(C)nc34)c12 (centres unmarked) [Example 235, 4-[7-[[6-(difluoromethylene)-2,3,5,7-tetrahydro-1H-pyrrolizin-8-yl]methoxy]-4-(8-ethyl-7-fluoro-3-hydroxy-1-naphthyl)-5-fluoro-2-methyl-pyrazolo[4,3-f]quinazolin-9-yl]-6-methyl-1,4-oxazepan-6-ol]	≤ 10	≤ 10
CCc1c(F)ccc2cc(O)cc(-c3c(F)c4nc(OC[C@@]5(CN(C)C)CC5(F)F)nc(N5CCOCC(C)(O)C5)c4c4cn(C)nc34)c12 (stereo partly drawn) [Example 236, 4-[4-(8-ethyl-7-fluoro-3-hydroxy-1-naphthyl)-5-fluoro-2-methyl-7-[[(1S)-1-[(dimethylamino)methyl]-2,2-difluoro-cyclopropyl]methoxy]pyrazolo[4,3-f]quinazolin-9-yl]-6-methyl-1,4-oxazepan-6-ol]	≤ 10	≤ 10
